#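 The compound was tested at five concentrations on cells cultured in 96-well plates, with a 48-hour exposure period. The concentration for full growth arrest is given as TGI.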
# Key:
# Assay in all cases: NCI-60 cell line screen, 48 h
# SN12C renal = tested on: SN12C renal
# HOP-62 NSCLC = tested on: HOP-62 NSCLC
# SK-OV-3 ovarian = tested on: SK-OV-3 ovarian
# MALME-3M melanoma = tested on: MALME-3M melanoma
# HOP-92 NSCLC = tested on: HOP-92 NSCLC
# TK-10 renal = tested on: TK-10 renal
# KM12 colon = tested on: KM12 colon
# SNB-75 CNS = tested on: SNB-75 CNS
# NCI/ADR-RES ovarian = tested on: NCI/ADR-RES ovarian
# HL-60(TB) leukemia = tested on: HL-60(TB) leukemia
# OVCAR-5 ovarian = tested on: OVCAR-5 ovarian
# HCT-116 colon = tested on: HCT-116 colon
# EKVX NSCLC = tested on: EKVX NSCLC
# HS 578T breast = tested on: HS 578T breast
# COLO 205 colon = tested on: COLO 205 colon
# RXF 393 renal = tested on: RXF 393 renal
# IGROV1 ovarian = tested on: IGROV1 ovarian
# NCI-H460 lung = tested on: NCI-H460 lung
# PC-3 prostate = tested on: PC-3 prostate
# SK-MEL-5 melanoma = tested on: SK-MEL-5 melanoma
# HCT-15 colon = tested on: HCT-15 colon
# K-562 leukemia = tested on: K-562 leukemia
# LOX IMVI melanoma = tested on: LOX IMVI melanoma
# HT29 colon = tested on: HT29 colon
# M14 melanoma = tested on: M14 melanoma
# NCI-H522 lung = tested on: NCI-H522 lung
# SK-MEL-2 melanoma = tested on: SK-MEL-2 melanoma
# UACC-257 melanoma = tested on: UACC-257 melanoma
# SF-539 CNS = tested on: SF-539 CNS
# SW-620 colon = tested on: SW-620 colon
# U251 CNS = tested on: U251 CNS
# BT-549 breast = tested on: BT-549 breast
# 786-0 renal = tested on: 786-0 renal
# SR leukemia = tested on: SR leukemia
# OVCAR-3 ovarian = tested on: OVCAR-3 ovarian
# RPMI-8226 leukemia = tested on: RPMI-8226 leukemia
# NCI-H226 lung = tested on: NCI-H226 lung
# ACHN renal = tested on: ACHN renal
# CCRF-CEM leukemia = tested on: CCRF-CEM leukemia
# UO-31 renal = tested on: UO-31 renal
# SK-MEL-28 melanoma = tested on: SK-MEL-28 melanoma
# DU-145 prostate = tested on: DU-145 prostate
# SNB-19 CNS = tested on: SNB-19 CNS
# UACC-62 melanoma = tested on: UACC-62 melanoma
# MDA-MB-231 breast = tested on: MDA-MB-231 breast
# MDA-MB-435 = tested on: MDA-MB-435
# A549 NSCLC = tested on: A549 NSCLC
# NCI-H23 lung = tested on: NCI-H23 lung
# T-47D breast = tested on: T-47D breast
# SF-268 CNS = tested on: SF-268 CNS
# CAKI-1 renal = tested on: CAKI-1 renal
# MDA-N = tested on: MDA-N
# A498 renal = tested on: A498 renal
# MCF7 breast = tested on: MCF7 breast
# SF-295 CNS = tested on: SF-295 CNS
# OVCAR-4 ovarian = tested on: OVCAR-4 ovarian
# OVCAR-8 ovarian = tested on: OVCAR-8 ovarian
# MOLT-4 leukemia = tested on: MOLT-4 leukemia
# HCC-2998 colon = tested on: HCC-2998 colon
structure (smiles),measurement,setting,value
Nc1c(S(=O)(=O)O)cc(S(=O)(=O)O)c2ccc(N=Nc3ccccc3)c(O)c12,TGI,SN12C renal,> 100 µM
same,TGI,HOP-62 NSCLC,> 100 µM
same,TGI,SK-OV-3 ovarian,> 100 µM
same,TGI,MALME-3M melanoma,> 100 µM
same,TGI,HOP-92 NSCLC,> 100 µM
same,TGI,TK-10 renal,> 100 µM
same,TGI,KM12 colon,> 100 µM
same,TGI,SNB-75 CNS,> 100 µM
same,TGI,NCI/ADR-RES ovarian,> 100 µM
same,TGI,HL-60(TB) leukemia,> 100 µM
same,TGI,OVCAR-5 ovarian,> 100 µM
same,TGI,HCT-116 colon,> 100 µM
same,TGI,EKVX NSCLC,> 100 µM
same,TGI,HS 578T breast,> 100 µM
same,TGI,COLO 205 colon,> 100 µM
same,TGI,RXF 393 renal,> 100 µM
same,TGI,IGROV1 ovarian,> 100 µM
same,TGI,NCI-H460 lung,> 100 µM
same,TGI,PC-3 prostate,> 100 µM
same,TGI,SK-MEL-5 melanoma,> 100 µM
same,TGI,HCT-15 colon,> 100 µM
same,TGI,K-562 leukemia,> 100 µM
same,TGI,LOX IMVI melanoma,> 100 µM
same,TGI,HT29 colon,> 100 µM
same,TGI,M14 melanoma,> 100 µM
same,TGI,NCI-H522 lung,> 100 µM
same,TGI,SK-MEL-2 melanoma,> 100 µM
same,TGI,UACC-257 melanoma,> 100 µM
same,TGI,SF-539 CNS,> 100 µM
same,TGI,SW-620 colon,> 100 µM
same,TGI,U251 CNS,> 100 µM
same,TGI,BT-549 breast,> 100 µM
same,TGI,786-0 renal,> 100 µM
same,TGI,SR leukemia,> 100 µM
same,TGI,OVCAR-3 ovarian,> 100 µM
same,TGI,RPMI-8226 leukemia,> 100 µM
same,TGI,NCI-H226 lung,> 100 µM
same,TGI,ACHN renal,> 100 µM
same,TGI,CCRF-CEM leukemia,> 100 µM
same,TGI,UO-31 renal,> 100 µM
same,TGI,SK-MEL-28 melanoma,> 100 µM
same,TGI,DU-145 prostate,> 100 µM
same,TGI,SNB-19 CNS,> 100 µM
same,TGI,UACC-62 melanoma,> 100 µM
same,TGI,MDA-MB-231 breast,> 100 µM
same,TGI,MDA-MB-435,> 100 µM
same,TGI,A549 NSCLC,> 100 µM
same,TGI,NCI-H23 lung,> 100 µM
same,TGI,T-47D breast,> 100 µM
same,TGI,SF-268 CNS,> 100 µM
same,TGI,CAKI-1 renal,> 100 µM
same,TGI,MDA-N,> 100 µM
same,TGI,A498 renal,> 100 µM
same,TGI,MCF7 breast,> 100 µM
same,TGI,SF-295 CNS,> 100 µM
same,TGI,OVCAR-4 ovarian,> 100 µM
same,TGI,OVCAR-8 ovarian,> 100 µM
NC(=O)C1=C(O)[C@@]2(O)C(=O)C3=C(O)c4c(O)cccc4CC3C[C@H]2CC1=O (some centres not stated),TGI,SN12C renal,14.5 µM
same,TGI,HOP-62 NSCLC,14.1 µM
same,TGI,SK-OV-3 ovarian,> 28.7 µM
same,TGI,MALME-3M melanoma,5.23 µM
same,TGI,HOP-92 NSCLC,6.05 µM
same,TGI,TK-10 renal,43.7 µM
same,TGI,KM12 colon,23.4 µM
same,TGI,SNB-75 CNS,8.35 µM
same,TGI,NCI/ADR-RES ovarian,13.7 µM
same,TGI,HL-60(TB) leukemia,14.9 µM
same,TGI,OVCAR-5 ovarian,12.3 µM
same,TGI,HCT-116 colon,12 µM
same,TGI,EKVX NSCLC,9.23 µM
same,TGI,HS 578T breast,13.7 µM
same,TGI,COLO 205 colon,3.17 µM
same,TGI,RXF 393 renal,9.58 µM
same,TGI,IGROV1 ovarian,12.5 µM
same,TGI,NCI-H460 lung,11.8 µM
same,TGI,PC-3 prostate,9.71 µM
same,TGI,SK-MEL-5 melanoma,3.67 µM
same,TGI,HCT-15 colon,6.21 µM
same,TGI,K-562 leukemia,> 61.5 µM
same,TGI,MOLT-4 leukemia,10.6 µM
same,TGI,LOX IMVI melanoma,10.5 µM
same,TGI,HT29 colon,7.34 µM
same,TGI,M14 melanoma,13.2 µM
same,TGI,NCI-H522 lung,7.72 µM
same,TGI,SK-MEL-2 melanoma,4.72 µM
same,TGI,UACC-257 melanoma,28.6 µM
same,TGI,HCC-2998 colon,16.1 µM
same,TGI,SF-539 CNS,13.4 µM
same,TGI,SW-620 colon,33.6 µM
same,TGI,U251 CNS,12.8 µM
same,TGI,BT-549 breast,9.46 µM
same,TGI,786-0 renal,17.6 µM
same,TGI,OVCAR-3 ovarian,14.7 µM
same,TGI,RPMI-8226 leukemia,6.12 µM
same,TGI,NCI-H226 lung,8.43 µM
same,TGI,ACHN renal,19.5 µM
same,TGI,CCRF-CEM leukemia,10.4 µM
same,TGI,UO-31 renal,10.5 µM
same,TGI,SK-MEL-28 melanoma,22.8 µM
same,TGI,DU-145 prostate,18.6 µM
same,TGI,SNB-19 CNS,10.9 µM
same,TGI,UACC-62 melanoma,8.61 µM
same,TGI,MDA-MB-231 breast,11.1 µM
same,TGI,MDA-MB-435,40.2 µM
same,TGI,A549 NSCLC,14.9 µM
same,TGI,NCI-H23 lung,8.89 µM
same,TGI,T-47D breast,23.8 µM
same,TGI,SF-268 CNS,17.8 µM
same,TGI,CAKI-1 renal,26.7 µM
same,TGI,MDA-N,41.2 µM
same,TGI,A498 renal,12.9 µM
same,TGI,MCF7 breast,> 49.9 µM
same,TGI,SF-295 CNS,13.5 µM
same,TGI,OVCAR-4 ovarian,> 85.1 µM
same,TGI,OVCAR-8 ovarian,17.3 µM
CC(C)CC(N)C(=O)NC(CNC(CCC(N)=O)C(=O)NC(CC(C)C)C(=O)NC(CC(C)C)C(=O)O)Cc1ccc2ccccc2c1 (configuration not stated),TGI,SN12C renal,> 10 µM
same,TGI,HOP-62 NSCLC,> 10 µM
same,TGI,SK-OV-3 ovarian,> 10 µM
same,TGI,MALME-3M melanoma,> 10 µM
same,TGI,HOP-92 NSCLC,> 10 µM
same,TGI,TK-10 renal,> 10 µM
same,TGI,KM12 colon,> 10 µM
same,TGI,SNB-75 CNS,> 10 µM
same,TGI,NCI/ADR-RES ovarian,> 10 µM
same,TGI,HL-60(TB) leukemia,> 10 µM
same,TGI,OVCAR-5 ovarian,> 10 µM
same,TGI,HCT-116 colon,> 10 µM
same,TGI,EKVX NSCLC,> 10 µM
same,TGI,HS 578T breast,> 10 µM
same,TGI,COLO 205 colon,> 10 µM
same,TGI,RXF 393 renal,> 10 µM
same,TGI,IGROV1 ovarian,> 10 µM
same,TGI,NCI-H460 lung,> 10 µM
same,TGI,PC-3 prostate,> 10 µM
same,TGI,SK-MEL-5 melanoma,> 10 µM
same,TGI,HCT-15 colon,> 10 µM
same,TGI,K-562 leukemia,> 10 µM
same,TGI,MOLT-4 leukemia,> 10 µM
same,TGI,LOX IMVI melanoma,> 10 µM
same,TGI,HT29 colon,> 10 µM
same,TGI,M14 melanoma,> 10 µM
same,TGI,SK-MEL-2 melanoma,> 10 µM
same,TGI,UACC-257 melanoma,> 10 µM
same,TGI,HCC-2998 colon,> 10 µM
same,TGI,SF-539 CNS,> 10 µM
same,TGI,SW-620 colon,> 10 µM
same,TGI,U251 CNS,> 10 µM
same,TGI,BT-549 breast,> 10 µM
same,TGI,786-0 renal,> 10 µM
same,TGI,SR leukemia,> 10 µM
same,TGI,OVCAR-3 ovarian,> 10 µM
same,TGI,RPMI-8226 leukemia,> 10 µM
same,TGI,NCI-H226 lung,> 10 µM
same,TGI,ACHN renal,> 10 µM
same,TGI,CCRF-CEM leukemia,> 10 µM
same,TGI,UO-31 renal,> 10 µM
same,TGI,SK-MEL-28 melanoma,> 10 µM
same,TGI,DU-145 prostate,> 10 µM
same,TGI,SNB-19 CNS,> 10 µM
same,TGI,UACC-62 melanoma,> 10 µM
same,TGI,MDA-MB-231 breast,> 10 µM
same,TGI,MDA-MB-435,> 10 µM
same,TGI,A549 NSCLC,> 10 µM
same,TGI,NCI-H23 lung,> 10 µM
same,TGI,SF-268 CNS,> 10 µM
same,TGI,CAKI-1 renal,> 10 µM
same,TGI,MDA-N,> 10 µM
same,TGI,A498 renal,> 10 µM
same,TGI,MCF7 breast,> 10 µM
same,TGI,SF-295 CNS,> 10 µM
same,TGI,OVCAR-4 ovarian,> 10 µM
same,TGI,OVCAR-8 ovarian,> 10 µM

# — PubChem BioAssay (NCI)
